Experimental findings from ChEMBL document CHEMBL4390683, “Design, synthesis, and evaluation of α-galactopyranosylceramide mimics promoting Th2 cytokines production” (2019) are described below.

What all share (assay type): functional
Test [1] relates to Mus musculus. The test can be described thus: Induction of serum IFNgamma production in C57BL/6 mouse assessed as serum IFNgamma level at 100 ug/kg, ip and measured for 48 hrs by AUC method.
Test [2] concerns Mus musculus. The experiment in a line: Induction of serum IL-4 production in C57BL/6 mouse assessed as serum IL-4 level at 100 ug/kg, ip and measured for 48 hrs by AUC method.
In test [3] the test system is Mus musculus. The test can be described thus: Ratio of induction activity for IL-4 production in C57BL/6 mouse at 100 ug/kg, ip after 48 hrs by AUC method to induction activity for IFN-gamma production in C57BL/6 mouse at 100 ug/kg, ip after 48 hrs by AUC method.
Test [4] deals with Mus musculus. The test can be described thus: Induction of serum IL-4 production in C57BL/6 mouse assessed as serum IL-4 level at 100 ug/kg, ip and measured for 48 hrs by peak value method. On the set-up: unit not given here.
Test [5] deals with Mus musculus. The experiment in a line: Induction of serum IFNgamma production in C57BL/6 mouse assessed as serum IFNgamma level at 100 ug/kg, ip and measured for 48 hrs by peak value method.
Test [6] deals with Mus musculus. The test can be described thus: Ratio of induction activity for IL-4 production in C57BL/6 mouse at 100 ug/kg, ip after 48 hrs by peak value method to induction activity for IFN-gamma production in C57BL/6 mouse at 100 ug/kg, ip after 48 hrs by peak value method.
Test [7] has as its system Mus musculus. The test can be described thus: Induction of serum IFNgamma production in C57BL/6 mouse at 100 ug/kg, ip and measured for 48 hrs by AUC method relative to KRN7000.
Test [8] relates to Mus musculus. The experiment in a line: Induction of serum IL-4 production in C57BL/6 mouse at 100 ug/kg, ip and measured for 48 hrs by AUC method relative to KRN7000.
Test [9] relates to Mus musculus. The test can be described thus: Induction of serum IL-4 production in C57BL/6 mouse assessed as serum IL-4 level at 100 ug/kg, ip and measured for 48 hrs by peak value method relative to KRN7000.
The subject of test [10] is Mus musculus. The test can be described thus: Induction of serum IFNgamma production in C57BL/6 mouse assessed as serum IFNgamma level at 100 ug/kg, ip and measured for 48 hrs by peak value method relative to KRN7000.

In the case of `CCCCCCCCCCCCCCCCCCCCCCCCCC(=O)N[C@@H](CO[C@H]1O[C@H](CO)[C@H](O)[C@H](O)[C@H]1O)[C@H](O)[C@H](O)CCCCCCCCCCCCCC` [RGI-7000], in test [1], the AUC was found to be 17400 pg·h/mL. Moreover, the Activity is 1331 pg·h/mL in test [2], 280 in [4] and 666 pg/mL in test [5]. Moreover, the Ratio in test [3] and in test [6] was 1 each time.
As for `CCCCCCCCCCCCCCCCCCCCCCCC(=O)N[C@@H](CO[C@H]1O[C@H](CNC(=O)CCc2ccc(O)cc2)[C@H](O)[C@H](O)[C@H]1O)[C@H](O)[C@H](O)CCCCC`, the AUC in test [1] worked out at 4380 pg·h/mL. Further, the Activity is 3120.95 pg·h/mL in test [2]; 25% in [7]; 234% in [8]; 657.75 in test [4]; 235% in [9]; 169 pg/mL in test [5]. Besides, in test [10], the Activity came out at 25%. The Ratio in test [3] turned out to be 9.3; in [6] it was 9.28.
On to `CCCCCCCCCCCCCCCCCCCCCCCC(=O)N[C@@H](CO[C@H]1O[C@H](CNC(=O)[C@@H](N)CCC(=O)O)[C@H](O)[C@H](O)[C@H]1O)[C@H](O)[C@H](O)CCCCC`, for which, in test [1], the AUC turned out to be 3520 pg·h/mL. Further, the Activity in test [2] was 2043.36 pg·h/mL; in [7], 20%; in test [8], 153%; in [4] it was 303.26; in test [9], 108%; in test [5], 241 pg/mL. The Activity in test [10] turned out to be 36%. Besides, the Ratio in test [3] amounted to 7.59; in [6] it was 2.99.
Turning to `CCCCCCCCCCCCCCCCCCCCCCCC(=O)N[C@@H](CO[C@H]1O[C@H](CO)[C@H](O)[C@H](O)[C@H]1O)[C@H](O)[C@H](O)CCCCC`, the AUC in test [1] worked out at 6780 pg·h/mL. Besides, the Activity turned out to be 39% in test [7]; 251% in test [8]; 244% in test [9]; 336 pg/mL in test [5]; 50% in test [10]. For the same compound, the results for the Ratio in [3] and in [6] were 6.45 and 4.85, respectively.
